Assays:
[1] = biological target: T1, human Focal Adhesion Kinase (FAK) (Homo sapiens, UniProt Q05397); assay: FAK3 Kinase Inhibition Assay (in vitro enzyme ELISA); format: biochemical; details: read-out: FAK inhibitory activity IC50
T1 construct: FAK (fall length human cDNA described by Andre et al); made in house; host or cells: insect cells (Sf21; printed 'Sf12'), baculovirus, pFastbac 1; cell lysate supernatant used as enzyme stock
Description: This assay determines the ability of a test compound to inhibit tyrosine kinase activity of human Focal Adhesion Kinase (FAK).
DNA encoding FAK is obtained by total gene synthesis (Edwards M, International Biotechnology Lab 5(3), 19-25, 1987) or by cloning. These are then expressed in a suitable expression system to obtain polypeptide with tyrosine kinase activity.
Active FAK protein has been previously expressed in a baculovirus system using a similar N-terminal 6-histidine tag (Protein Expression And Purification, 1996, 7: 12-18). The human FAK cDNA was cloned into the baculovirus transplacement vector, pFastbac 1 (Life Technologies), and the recombinant construct was co-transfected into insect cells (for example Spodoptera frugiperda 21(Sf21)) with viral DNA to prepare recombinant baculovirus (details of the methods for the assembly of recombinant DNA molecules and the preparation and use of recombinant baculovirus can be found in standard texts for example Sambrook et al, 1989, Molecular cloning—A Laboratory Manual, 2nd edition, Cold Spring Harbour Laboratory Press and O'Reilly et al, 1992, Baculovirus Expression Vectors—A Laboratory Manual, W.H. Freeman and Co, New York. Details specific to the use of the pFastbac (‘Bac to Bac’) system are provided in Anderson et al., 1995, FOCUS (Life Technologies Bulletin Magazine), 17, p53.) […]

[2] = biological target: T2, CDK4/Cyclin D1 (Homo sapiens, UniProt P11802); assay: CDK4 Inhibition Assay (SPA, GST-Rb substrate); format: biochemical; details: in vitro kinase assay; read-out: CDK4 inhibitory activity IC50
T2 construct: made in house; host or cells: SF21 insect cells (Spodoptera frugiperda), baculovirus co-infection; vector pVL1393
Method: The compounds were tested in an in vitro kinase assay in 96 well format using Scintillation Proximity Assay (SPA—obtained from Amersham) for measuring incorporation of [γ-33-P]-Adenosine Triphosphate into a test substrate (GST-Retinoblastoma). In each well was placed the compound to be tested (diluted in DMSO and water to correct concentrations) and in control wells either p16 as an inhibitor control or DMSO as a positive control.
Approximately 0.5 μl of CDK4/Cyclin D1 partially-purified enzyme (amount dependent on enzyme activity) diluted in 25 μl incubation buffer was added to each well then 20 μl of GST-Rb/ATP/ATP33 mixture (containing 0.5 μg GST-Rb and 0.2 μM ATP and 0.14 μCi [γ-33-P]-Adenosine Triphosphate), and the resulting mixture shaken gently, then incubated at room temperature for 60 minutes. […]
The plates were sealed with Topseal-S plate sealers, left for two hours then spun at 2500 rpm, 1124×g., for 5 minutes. The plates were read on a Topcount for 30 seconds per well. […]
E. coli paste was resuspended in 10 ml/g of NETN buffer (50 mM Tris pH 7.5, 120 mM NaCl, 1 mM EDTA, 0.5% v/v NP-40, 1 mM PMSF, 1 ug/ml leupeptin, 1 ug/ml aprotinin and 1 ug/ml pepstatin) and sonicated for 2×45 seconds per 100 ml homogenate. […] The final product was analysed by Sodium Dodeca Sulfate (SDS) PAGE (Polyacrylamide gel) using 8-16% Tris-Glycine gels (Novex, San Diego, USA). […]

T1 sequence (Q05397 whole entry): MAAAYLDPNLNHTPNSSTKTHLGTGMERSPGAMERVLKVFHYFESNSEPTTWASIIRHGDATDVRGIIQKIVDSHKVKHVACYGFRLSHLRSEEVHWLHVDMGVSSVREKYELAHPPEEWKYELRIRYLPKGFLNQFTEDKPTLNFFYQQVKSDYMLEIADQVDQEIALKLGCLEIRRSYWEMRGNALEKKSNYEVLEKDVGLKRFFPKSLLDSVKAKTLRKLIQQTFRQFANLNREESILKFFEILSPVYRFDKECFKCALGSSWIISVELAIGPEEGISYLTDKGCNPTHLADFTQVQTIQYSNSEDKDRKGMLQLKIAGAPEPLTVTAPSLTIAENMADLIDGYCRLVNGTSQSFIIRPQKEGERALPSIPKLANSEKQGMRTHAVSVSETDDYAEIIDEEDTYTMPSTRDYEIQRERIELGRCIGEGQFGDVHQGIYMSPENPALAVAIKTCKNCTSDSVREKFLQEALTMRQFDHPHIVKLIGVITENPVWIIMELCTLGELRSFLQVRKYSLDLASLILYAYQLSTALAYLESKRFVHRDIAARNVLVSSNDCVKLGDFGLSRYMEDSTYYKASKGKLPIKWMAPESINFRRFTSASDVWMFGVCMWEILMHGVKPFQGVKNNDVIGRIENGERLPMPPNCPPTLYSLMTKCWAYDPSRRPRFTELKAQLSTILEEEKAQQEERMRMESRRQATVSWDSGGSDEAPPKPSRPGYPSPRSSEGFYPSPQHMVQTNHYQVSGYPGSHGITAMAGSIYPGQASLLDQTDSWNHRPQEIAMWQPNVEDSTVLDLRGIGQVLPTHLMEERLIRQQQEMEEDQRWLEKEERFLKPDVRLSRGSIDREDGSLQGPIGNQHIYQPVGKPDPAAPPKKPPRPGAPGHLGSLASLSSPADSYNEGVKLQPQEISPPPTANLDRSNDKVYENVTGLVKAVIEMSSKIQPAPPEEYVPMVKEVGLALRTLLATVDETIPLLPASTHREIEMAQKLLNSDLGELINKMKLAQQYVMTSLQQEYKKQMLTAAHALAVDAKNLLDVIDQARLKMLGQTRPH
T2 sequence (P11802 whole entry): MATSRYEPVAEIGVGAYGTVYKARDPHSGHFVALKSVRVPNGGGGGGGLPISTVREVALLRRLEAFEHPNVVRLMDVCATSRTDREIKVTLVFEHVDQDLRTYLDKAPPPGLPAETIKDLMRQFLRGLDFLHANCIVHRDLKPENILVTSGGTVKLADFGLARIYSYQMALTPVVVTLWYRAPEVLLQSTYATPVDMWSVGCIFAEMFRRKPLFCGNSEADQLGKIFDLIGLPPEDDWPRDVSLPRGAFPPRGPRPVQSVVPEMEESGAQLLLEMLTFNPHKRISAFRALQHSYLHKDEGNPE
T2 sequence (P24385 whole entry partner): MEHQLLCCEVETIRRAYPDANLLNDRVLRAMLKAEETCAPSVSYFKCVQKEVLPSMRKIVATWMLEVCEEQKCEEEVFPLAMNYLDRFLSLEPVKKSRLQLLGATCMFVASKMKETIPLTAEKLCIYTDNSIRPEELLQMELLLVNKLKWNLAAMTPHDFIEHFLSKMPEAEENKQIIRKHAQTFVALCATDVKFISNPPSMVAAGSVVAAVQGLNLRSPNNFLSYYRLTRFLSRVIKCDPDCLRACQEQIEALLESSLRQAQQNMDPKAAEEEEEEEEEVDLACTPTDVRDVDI

IC50 [1] [nM] | IC50 [2] [nM] | Compound
97 | – | CCCCN(CCCC)CCCNC(=O)c1ccc(Nc2ncc(Br)c(Nc3ccccc3)n2)cc1 [Example 47]
– | 235 | O=C(NCCN1CCCCC1)c1ccc(Nc2ncc(Br)c(Nc3ccccc3)n2)cc1 [Example 45]
814 | – | O=C(c1ccc(Nc2ncc(Br)c(Nc3ccccc3)n2)cc1)N1CCC(N2CCCC2)CC1 [Example 52]

— patent publication US6649608B2, “2,4-di(hetero-)arylamino (oxy)-5-substituted pyrimidines as antineoplastic agents” (AstraZeneca AB, priority 2000, dated 2003)
